Literature values as cited in patent US20020058290A1, “Cell lines and cell-based assays for identification of androgen receptor modulators” (priority 2000, published 2002).

Tested on: MAP kinases Erk-1 and Erk-2
Details: AR-transfected PC3 cells; AR dependent, similar to DHT

Compound | activation of MAP kinases Erk-1 and Erk-2
CC(O)(CS(=O)(=O)c1ccc(F)cc1)C(=O)Nc1ccc(C#N)c(C(F)(F)F)c1 (centres unmarked) [Casodex] | activate MAP kinases Erk-1 and Erk-2 in an AR dependent fashion
CC(C)(O)C(=O)Nc1ccc([N+](=O)[O-])c(C(F)(F)F)c1 [Hydroxyflutamide] | activate MAP kinases Erk-1 and Erk-2 in an AR dependent fashion
